# Measurements as given in ChEMBL document CHEMBL3576783, “Synthesis and evaluation of 1,2,4-triazolo[1,5-a]pyrimidines as antibacterial agents against Enterococcus faecium” (J Med Chem, 2015).
# Tested on: Enterococcus faecium
# Experiment: microbe, parasite or virus in culture
# Conditions: NCTC 7171
# Description: Antibacterial activity against Enterococcus faecium NCTC 7171 assessed as bacterial growth inhibition after 16-20 hrs by broth microdilution method
row,Structure (SMILES),MIC [µg/mL]
1,CCc1ccc(C2C(C(=O)Nc3ccccc3C)=C(C)Nc3nc(SCc4cccc(OC)c4)nn32)cc1 (stereo unspecified),> 128
2,CC1=C(C(N)=O)C(c2ccc(C(F)(F)F)cc2)n2nc(SCc3ccccc3)nc2N1 (stereo unspecified),8
3,CC1=C(C(N)=O)C(c2ccc(OC(F)(F)F)cc2)n2nc(SCc3ccccc3)nc2N1 (stereo unspecified),8
4,CC1=C(C(N)=O)C(c2ccc(N(C)C)cc2)n2nc(N)nc2N1 (stereo unspecified),> 128
5,CCc1ccc(C2C(C(=O)Nc3ccccc3)=C(C)Nc3nc(SCc4cccc(OC)c4)nn32)cc1 (stereo unspecified),> 128
6,CSc1ccc(CSc2nc3n(n2)C(c2ccc(N(C)C)cc2)C(C(N)=O)=C(C)N3)cc1 (stereo unspecified),> 128
7,COc1ccc(C2C(C(=O)Nc3ccc(C)cc3C)=C(C)Nc3nc(SCc4cccc(C)c4)nn32)cc1 (stereo unspecified),> 128
8,COc1ccc(C2C(C(N)=O)=C(C)Nc3nc(SCc4ccccc4)nn32)cc1OC (stereo unspecified),> 128
9,COc1ncccc1C1C(C(N)=O)=C(C)Nc2nc(SCc3ccccc3)nn21 (stereo unspecified),128
10,CC1=C(C(N)=O)C(c2ccc(N(C)C)cc2)n2nc(SCc3ccc(SC(F)(F)F)cc3)nc2N1 (stereo unspecified),8
11,CSc1nc2n(n1)C(c1ccc(N(C)C)cc1)C(C(N)=O)=C(C)N2 (stereo unspecified),> 128
12,O=C1CCCC2=C1C(c1ccc(Cl)cc1)n1nc(SCc3cccc4ccccc34)nc1N2 (stereo unspecified),> 128
13,CCN(CC)c1ccc(C2C(C(N)=O)=C(C)Nc3nc(SCc4ccccc4)nn32)cc1 (stereo unspecified),8
14,COC(=O)c1ccc(CSc2nc3n(n2)C(c2ccc(N(C)C)cc2)C(C(N)=O)=C(C)N3)cc1 (stereo unspecified),> 128
15,CC1=C(C(N)=O)C(c2ccccc2C(F)(F)F)n2nc(SCc3ccccc3)nc2N1 (stereo unspecified),> 128
16,COc1ccc(C2C(C(N)=O)=C(C)Nc3nc(SCc4ccccc4)nn32)cc1O (stereo unspecified),> 128
17,CN(C)c1ccc(C2C3=C(CCCC3=O)Nc3nc(SCc4ccccc4)nn32)cc1 (stereo unspecified),> 128
18,COc1ccc(C2C(C(N)=O)=C(C)Nc3nc(SCc4ccccc4)nn32)cc1 (stereo unspecified),> 128
19,CC1=C(C(N)=O)C(c2ccco2)n2nc(SCc3ccccc3)nc2N1 (stereo unspecified),> 128
20,CC1=C(C(N)=O)C(c2cccc(OC(F)(F)F)c2)n2nc(SCc3ccccc3)nc2N1 (stereo unspecified),16
21,CCOC(=O)CSc1nc2n(n1)C(c1ccc(N(C)C)cc1)C(C(N)=O)=C(C)N2 (stereo unspecified),> 128

row,Structure (SMILES),MIC [µg/mL]
1,CC1=C(C(N)=O)C(c2ccc(N(C)C)cc2)n2nc(Sc3ccccn3)nc2N1 (stereo unspecified),> 128
2,CC1=C(C(N)=O)C(c2ccc(C#N)cc2)n2nc(SCc3ccccc3)nc2N1 (stereo unspecified),16
3,CCOC(=O)C1=C(C)Nc2nc(SCc3ccccc3)nn2C1c1ccc(N(C)C)cc1 (stereo unspecified),> 128
4,CC1=C(C(N)=O)C(c2ccc[nH]2)n2nc(SCc3ccccc3)nc2N1 (stereo unspecified),> 128
5,CC1=C(C(=O)Nc2ccc(C)cc2C)C(c2ccc(F)cc2)n2nc(SCc3cccc(C)c3)nc2N1 (stereo unspecified),> 128
6,CC1=C(C(N)=O)C(c2ccc(N)cc2)n2nc(SCc3ccccc3)nc2N1 (stereo unspecified),> 128
7,COc1ccc(C2C3=C(CCCC3=O)Nc3nc(SCc4ccc(C(=O)O)cc4)nn32)cc1 (stereo unspecified),> 128
8,CC1=C(C(N)=O)C(c2cccc(C(F)(F)F)c2)n2nc(SCc3ccccc3)nc2N1 (stereo unspecified),16
9,CC1=C(C(N)=O)C(c2ccc(C(C)C)cc2)n2nc(SCCNC(=O)OCc3ccccc3)nc2N1 (stereo unspecified),> 128
10,CC1=C(C(N)=O)C(c2cccc(OC(C)C)c2)n2nc(SCc3ccccc3)nc2N1 (stereo unspecified),> 128
11,COc1ccc(CSc2nc3n(n2)C(c2ccc(N(C)C)cc2)C(C(N)=O)=C(C)N3)cc1 (stereo unspecified),> 128
12,CNC(=O)C1=C(C)Nc2nc(SCc3ccccc3)nn2C1c1ccc(N(C)C)cc1 (stereo unspecified),8
13,CC1=C(C(N)=O)C(c2ccc(N3CCCC3)cc2)n2nc(SCc3ccccc3)nc2N1 (stereo unspecified),16
14,CCOC(=O)C1=C(C)Nc2nc(SCc3ccc(C(=O)O)cc3)nn2C1c1cccs1 (stereo unspecified),> 128
15,CC1=C(C(N)=O)C(c2cccnc2)n2nc(SCc3ccccc3)nc2N1 (stereo unspecified),> 128
16,CC1=C(C(N)=O)C(c2ccc(N(C)C)cc2)n2nc(SCc3ccc(C)cc3)nc2N1 (stereo unspecified),> 128
17,CC1=C(C(N)=O)C(c2ccncc2)n2nc(SCc3ccccc3)nc2N1 (stereo unspecified),> 128
18,CC1=C(C(N)=O)C(c2ccc(N(C)C)cc2)n2nc(SCc3ccncc3)nc2N1 (stereo unspecified),128
19,CC1=C(C(N)=O)C(c2ccc(C(=O)O)cc2)n2nc(SCCNC(=O)OCc3ccccc3)nc2N1 (stereo unspecified),> 128
20,CC1=C(C(N)=O)C(C2CCCCC2)n2nc(SCc3ccccc3)nc2N1 (stereo unspecified),> 128
